This note sets out measurements from patent publication US20110086848A1, “Agrochemical Compositions Comprising Alkyl Polypropylene Glycol Polyethylene Glycol” (Bayer CropScience AG, priority 2009, published 2011).

This data set in a line: physchem. Type of data set: physicochemical. The procedure:
In the context of the present invention, the term “water-soluble agrochemically active compound” is generally understood as meaning an insecticidally and/or acaricidally active compound (i.e. an active compound that controls insects and/or Acarina) which has (at 20° C.) a solubility of ≧10 mg/l in water. Compounds A and B meet this requirement.

Like-named read-outs stand apart in the source and are kept apart here.

For the compound `C/C(=N\C#N)N(Cc1ccc(Cl)nc1)CC(F)F` [Compound A], the solubility (at 20° C., stated as meeting the definition of water-soluble, read-out: solubility in water) is ≥ 10 µg/mL.
In the case of `O=C1C=C(N(Cc2ccc(Cl)nc2)CC(F)F)CO1` [Compound B], the solubility (20 °C, water) was ≥ 10 µg/mL.
